Broadly, the melting point is the temperature, or range, at which the solid turns liquid. The compound `CC1(C)Oc2ccc3nc(C#N)ccc3c2C(NCCc2ccccc2)C1O` (configuration not stated) returned a melting point of 93 to 96 °C.

Compound `Cc1ccc(Sc2nc(C(N)=O)nc3c(C)csc23)cc1` showed a melting point of 243 to 246 °C.

As for `CC(=O)Nc1ccn(C2OC(COC(C)=O)C(Br)C2OC(C)=O)c(=O)n1` (configuration not stated), the melting point is 179 to 180 °C.

In the case of `COc1cc(C2=CCCc3ccccc32)c(Cl)cc1C(=O)N1Cc2cccn2Cc2ccccc21`, the melting point was 209 to 210 °C.

`COc1ccc(N2N=C3c4cc(C)sc4S(=O)(=O)CCC3CC2=O)cc1` (configuration not stated) showed a melting point of 190 to 191 °C.

In the case of `Cc1nnc2n1-c1ccccc1NC2C` (configuration not stated), the melting point was in the range of 172 to 173 °C.

Take `COC(=O)c1cccc(-c2cnc3c(c2)N(Cc2ccccc2)C(=O)CN3)c1`: the melting point stood at 211 °C.

The compound `CCOC(=O)C(=CNc1cc(O)cc(O)c1)C(=O)OCC` displayed a melting point of 190 to 192 °C.

With `CC(=O)c1ccc(S(=O)(=O)NCC(F)(F)F)cc1`, the melting point lay in the range of 180 to 181 °C.

`O=C(O)c1ccc(N2CCOCC2)c(NC(=O)C(CS)Cc2ccccc2)c1` (configuration not stated) had a melting point of 218 to 222 °C.

As for `O=CNN(C1=NCCS1)c1ccccc1`, the melting point was in the range of 140 to 141 °C.

For the compound `COC(=O)C=Cc1ccc(-c2ccccc2)cc1`, the melting point lay within 144 to 147 °C.

For `O=C(NNC(=O)c1ccncc1)Nc1cccc2c1C(=O)c1c-2n[nH]c1-c1ccc(N2CCNCC2)cc1`, the melting point turned out to be 232 °C.

Compound `CC(C)(C)SC1N(C(C(=O)OCc2ccc([N+](=O)[O-])cc2)C(=O)C(C)(C)C)C(=O)C1(C)C` (configuration not stated) yielded a melting point of 87.5 to 90.5 °C.

The compound `C[C@@H](C(N)=O)c1ccc(NS(C)(=O)=O)c(F)c1` gave a melting point of 40 to 42 °C.

`Nc1ccc(F)c(-c2cncnc2)c1F`: the melting point was in the range of 141 to 143 °C.

For `COc1ccc(-c2ccccc2NC(=N)N(C)C)cc1`, the melting point is 130 to 131 °C.

As for `Cc1cc(NC(=O)OC(C)(C)C)c(N)cc1C#Cc1ccccc1`, the melting point fell in the range of 172 to 173 °C.

On to `CCOC(=O)CC1NC(=O)c2ccccc21` (configuration not stated), for which the melting point fell in the range of 116 to 118 °C.

For the compound `C=CCC(F)(F)C(=O)C(Cc1ccccc1)NC(=O)c1ccccc1` (configuration not stated), the melting point was determined as 98 °C.

Take `CC(C)(C)c1cc(-c2noc(N)n2)cc(C(C)(C)C)c1O`: the melting point lay within 202 to 204 °C.

For the compound `CCOC(=O)C1CC(=O)c2nc(C)n(C)c2C1` (configuration not stated), the melting point fell in the range of 148 to 150 °C.

In turn, `CNC(=O)Oc1ccc2ccccc2c1` gave a melting point of 119 °C.

In turn, `COC(=O)c1cc2ccc(SCCCc3cc4c(cc3OCc3ccccc3)CC(CCc3ccccc3)O4)cc2nc1OC` (configuration not stated) displayed a melting point of 96 to 98 °C.

In turn, `CCc1cccc(CNC[C@@H](O)[C@H](Cc2cc(F)cc(F)c2)NC(=O)CC2CCCC(=O)C2)c1` (some centres not stated) yielded a melting point of 140 to 150 °C.

`O=C1CCOc2cc(OCc3ccccc3)c(F)cc21` came in with a melting point of 155 to 156 °C.

As for `CCOC(=O)N1CCC(NC2(c3ccccc3Cl)C(=O)Nc3ccc(Cl)cc32)CC1` (configuration not stated), the melting point came out at 204 °C.

For the compound `COC(=O)C(Br)(C1=NCCCS1)[N+](=O)[O-]` (configuration not stated), the melting point fell in the range of 88.5 to 93 °C.

The compound `Nc1nc(N)nc(-c2nccc3ccccc23)n1` yielded a melting point above 250 °C.

As for `COC(=O)c1cccc(CC#N)c1[N+](=O)[O-]`, the melting point was 77 to 80 °C.

On to `O=c1nc(-c2ccccc2)c2cc(Cl)ccc2n1CC(F)(F)F`, for which the melting point was in the range of 184 to 185 °C.

For `N#Cc1nn(-c2c(Cl)cc(C(F)(F)F)cc2Cl)c(N2CCCCC2)c1S(=O)(=O)C(F)(F)F`, the melting point was 153 to 155 °C.

On to `CSc1nc(=O)cc(N)n1-c1ccc(Cl)cc1`, for which the melting point lay in the range of 180 to 182 °C.

Consider `CCNC(=NC#N)NC`, for which the melting point fell in the range of 120 to 124 °C.

The compound `O=S1(=O)NCc2ccccc2N1` registered a melting point of 178 to 180 °C.

In turn, `Cc1nnc2n1-c1ccc(C#CCOc3ccccc3)cc1C(c1ccccc1Cl)=NC2` came in with a melting point of 160 to 162 °C.

For the compound `Cc1cccc(-c2nc3cccnn3c2-c2ccnc(NCC3CCCO3)c2)c1` (configuration not stated), the melting point fell in the range of 137 to 138 °C.

For `O=C1CC2(CCCC2)C(O)C(=O)N1CCCCN1CCN(c2ncccn2)CC1` (configuration not stated), the melting point came to 110 °C.

`CN1C(=O)CCC2=C1CCc1c(F)cccc12` showed a melting point of 137 to 138 °C.

For `N#Cc1ccc(-c2cc(C(=O)O)c(=O)n(Cc3ccccc3)n2)cc1`, the melting point lay within 254 to 256 °C.

Compound `CNC(=O)Nc1ccsc1C(=O)OC` showed a melting point of 141 to 142 °C.

As for `O=C(O)c1cn(-c2ccc(F)cc2)c2c(F)c(N3CCCC3)c(F)cc2c1=O`, the melting point is 282 to 284 °C.

In the case of `NC1CCCN(c2ncc3ncnc(Nc4ccc(F)c(Cl)c4)c3n2)C1` (configuration not stated), the melting point was in the range of 172 to 175 °C.

For the compound `CCOC(=O)N1CCC(Oc2ccccc2)(c2ccccc2)CC1`, the melting point lay within 117 to 118 °C.

Take `O=[N+]([O-])c1oc2c(CO)cccc2c1-c1ccccc1`: the melting point fell in the range of 128 to 130 °C.

In the case of `Cc1cc(C)cc(S(=O)c2c(C(C)C)nc(C)n2C)c1` (configuration not stated), the melting point is 100 to 101 °C.

For `NC(=Nc1ccc(CNC(=O)CCCCC2CCSS2)cc1)c1cccs1` (configuration not stated), the melting point was 152 °C.

`Cc1ccc(COC2C(Sc3ccccc3)OC(C)C(OC(=O)c3ccccc3)C2OC(=O)c2ccccc2)cc1` (configuration not stated) came in with a melting point of 81 to 83 °C.

On to `COc1ccc(/C=C/c2c(Cl)cccc2Cl)cc1OC1CCCC1`, for which the melting point lay in the range of 47 to 49 °C.

`COc1ccc(N2CCCn3c2nc2c(Cl)ccc(C(O)(C4CC4)C4CC4)c23)c(C)n1`: the melting point lay within 208 to 210 °C.

In the case of `Cn1c(=O)on(-c2cc(F)ccc2F)c1=O`, the melting point was in the range of 66 to 68 °C.

For the compound `CCCCCCC1=C(Br)C(CBr)(NCc2ccccc2)OC1=O` (configuration not stated), the melting point fell in the range of 72 to 75 °C.

Regarding `CC(=O)CCC(C)C1CC=C2C3=C(CCC21C)C1(C)CCC(O)C(C)(C)C1CC3` (configuration not stated), the melting point lay in the range of 183 to 185 °C.

`COc1c([N+](=O)[O-])ccc(C=O)c1OS(=O)(=O)c1ccccc1` registered a melting point of 74 to 76 °C.

`CCCCCCCCOc1ccc(-c2ncc(Br)cn2)c(F)c1` showed a melting point of 7.16 °C.

With `CCCCn1c(C)c(C)cc(N)c1=O`, the melting point is 94 to 97 °C.

As for `O=C(O)Cc1c(C(=O)c2ccc(OC(F)(F)F)cc2)[nH]c2ccc(Cl)cc12`, the melting point worked out at 187 °C.

As to `Cc1ccc(CNC(=O)c2nc(N3CCOCC3)n(C)c(=O)c2O)cc1C`, the melting point lay in the range of 164 to 166 °C.

On to `Cn1c(Cl)c(Cl)c(C#N)c1Cl`, for which the melting point is 113 to 114 °C.

Compound `O=C(c1cccnc1)N1CCC(c2ccccc2Cl)=N1` yielded a melting point of 115 to 116 °C.

Regarding `O=C1CCCc2c1cccc2N1CCN(CCCCOc2ccc3ccc(=O)[nH]c3n2)CC1`, the melting point is 158 to 160 °C.

For the compound `O=C(CCc1ccc(NC2=NCCN2)cc1)c1ccc(F)cc1`, the melting point lay within 190 to 191 °C.

As to `Cc1c[nH]c2ccc(O)cc12`, the melting point amounted to 116 °C.

`Nc1nc(COCC(F)(F)F)nc2nccnc12` yielded a melting point of 145 to 147 °C.

In the case of `Cc1c(NC(=O)CC(C)(C)C)c(C)c2c(c1-c1ccccn1)OCC2c1ccc(C(C)C)cc1` (configuration not stated), the melting point is 198 to 200 °C.

The compound `CC(=O)c1c(-c2ccc(Cl)cc2)c(-c2ccc(Cl)cc2)n[nH]c1=O` gave a melting point of 267 to 269 °C.

Compound `CC(=O)N(c1ccc(C)c(C)c1)[C@H](C)C(=O)O` yielded a melting point of 156 to 159 °C.

With `CCOc1cc2cc3c(c(-c4ccncc4)c2cc1OCC)C(=O)NC3=O`, the melting point lay within 210 to 213 °C.

The compound `CCOC(=O)c1sc(-n2ccc(OCc3ccc(F)cc3)cc2=O)nc1C` gave a melting point of 214 to 217 °C.

Regarding `O=C(O)Cc1c(C(=O)c2ccc(Cl)cc2Cl)[nH]c2cc(Cl)ccc12`, the melting point fell in the range of 190 to 192 °C.

`COc1ccc(CN2C(=O)C3(COc4cc5c(cc43)CCO5)c3c2ccc2ncccc32)cc1` (configuration not stated): the melting point fell in the range of 169 to 170 °C.

`CCN1C(=O)c2cccc3c(S(C)(=O)=O)ccc1c23` displayed a melting point of 199 to 203 °C.

In turn, `CC(C)(C(=O)O)c1ccc(C(=O)CCCN2CCC(OC(c3ccccc3)c3ccccc3)CC2)cc1` yielded a melting point of 93 to 95 °C.

`CCCCOC(=O)c1[nH]c(=O)c2cc(OC(C)C)ccc2c1O` yielded a melting point of 118 to 123 °C.

Regarding `CN1CCCC1=NC(=O)Nc1ccccc1`, the melting point lay within 140 to 144 °C.

The compound `Cc1cccc(C2COc3c(ccc(O)c3O)C2)c1` (configuration not stated) yielded a melting point of 95 to 96 °C.

`COc1ccc(N(C)CCCOc2ccc3ccccc3c2)cc1` yielded a melting point of 112 °C.

Compound `CCC1Nc2c(C)cccc2-n2cccc21` (configuration not stated) showed a melting point of 65 to 68 °C.

For `O=C(NCCO)c1ccc(/C=C/c2ccccc2OCc2ccccc2)cc1`, the melting point fell in the range of 149 to 151 °C.

In the case of `CC(=O)C(Cc1cc(C(C)(C)C)c(O)c(C(C)(C)C)c1)(Cc1cc(C(C)(C)C)c(O)c(C(C)(C)C)c1)C(=O)OC1CC(C)(C)NC(C)(C)C1`, the melting point was in the range of 177 to 178 °C.

`CCCCOc1cc(CNCCN(CC)CC)cc(S(N)(=O)=O)c1Cc1ccccc1` showed a melting point of 89 to 93 °C.

Take `CCc1c(-c2ccc(O)cc2)c2c(C(=O)N(C)CCN(C)C)cc3cc(OC)cc1n32`: the melting point was in the range of 190 to 200 °C.

The compound `O=C(O)CCC(NC(=O)c1ccc(-c2ccccc2OC2OC(CO)C(O)C(O)C2O)cc1)C(=O)O` (configuration not stated) gave a melting point of 118 to 121 °C.

With `CCCCCCc1c(CCCC)nc2ncnn2c1N`, the melting point lay in the range of 134 to 136 °C.

On to `CC1OC(=S)c2c(O)cccc21` (configuration not stated), for which the melting point fell in the range of 39 to 41 °C.

On to `CNC(=O)c1cccc2cccc(NC(=O)c3cccs3)c12`, for which the melting point amounted to 210 °C.

Turning to `COc1cc(C(=O)c2csc(-c3ccncc3)n2)cc(OC)c1OC`, the melting point fell in the range of 178 to 180 °C.

`O=C(O)c1[nH]c2cc(Cl)cc(Cl)c2c1NCS(=O)(=O)c1ccccc1`: the melting point was in the range of 286 to 290 °C.

Compound `Cn1cccc1C1=CC(=O)c2nccnc2C1=O` displayed a melting point of 161 to 162 °C.

Regarding `NC(=O)CC12CC3CC(CC(C3)C1)C2`, the melting point was 174 °C.

Turning to `CC1(C2CCCC2)Cc2cc(OCC(=O)O)c(Cl)c(Cl)c2C1=NO` (configuration not stated), the melting point worked out at 230 °C.

As for `O[C@@H]1c2ccccc2C=C[C@H]1NCc1ccccc1` (relative stereo), the melting point is 125 to 126 °C.

(Values after a melting point compilation (Tetko et al.; mined from patent text by program, amines drawn as free bases though some values may be those of a salt).)
